Data as given in ChEMBL document CHEMBL4359906, “Design and synthesis of new N-terminal fatty acid modified-antimicrobial peptide analogues with potent in vitro biological activity” (Eur J Med Chem, 2019).
The source made the active and inactive calls. The rule behind the calls is not given here.

Legend:
RAW264.7 = assay: Cytotoxicity against mouse RAW264.7 cells assessed as cell proliferation at 16 uM after 1 hr by MTT assay; format: cell-based; conditions: raw264.7, 1 h
Escherichia coli [1] = assay: Antibacterial activity against Escherichia coli ATCC 25922 after 18 hrs in presence of NaCl by CLSI based broth microdilution method (reference value: 4 microM); format: functional; conditions: ATCC 25922, 18 h
Escherichia coli [2] = assay: Antibacterial activity against Escherichia coli ATCC 25922 after 18 hrs in presence of KCl by CLSI based broth microdilution method (reference value: 4 microM); format: functional; conditions: ATCC 25922, 18 h
Escherichia coli [3] = assay: Antibacterial activity against Escherichia coli ATCC 25922 after 18 hrs in presence of MgCl2 by CLSI based broth microdilution method (reference value: 4 microM); format: functional; conditions: ATCC 25922, 18 h
Escherichia coli [4] = assay: Antibacterial activity against Escherichia coli ATCC 25922 after 18 hrs in presence of FeCl3 by CLSI based broth microdilution method (reference value: 4 microM); format: functional; conditions: ATCC 25922, 18 h
Staphylococcus aureus [5] = assay: Antibacterial activity against Staphylococcus aureus ATCC 25923 after 18 hrs in presence of KCl by CLSI based broth microdilution method (reference value: 16 microM); format: functional; conditions: ATCC 25923, 18 h
Staphylococcus aureus [6] = assay: Antibacterial activity against Staphylococcus aureus ATCC 25923 after 18 hrs in presence of MgCl2 by CLSI based broth microdilution method (reference value: 16 microM); format: functional; conditions: ATCC 25923, 18 h
Staphylococcus aureus [7] = assay: Antibacterial activity against Staphylococcus aureus ATCC 25923 after 18 hrs in presence of FeCl3 by CLSI based broth microdilution method (reference value: 16 microM); format: functional; conditions: ATCC 25923, 18 h
Escherichia coli [8] = assay: Antimicrobial activity against Escherichia coli ATCC 25922 preincubated for 1 hr in presence of 10% mouse serum and measured after 18 hrs by CLSI-based broth microdilution assay (reference value: 4 microM); format: functional
Escherichia coli [9] = assay: Antimicrobial activity against Escherichia coli ATCC 25922 preincubated for 6 hrs in presence of 10% mouse serum and measured after 18 hrs by CLSI-based broth microdilution assay (reference value: 4 microM); format: functional
[10] = Cytotoxicity against mouse RAW264.7 cells assessed as cell proliferation at 8 uM after 1 hr by MTT assay relative to control; format: cell-based; conditions: read-out: Activity
Staphylococcus aureus [11] = assay: Antibacterial activity against Staphylococcus aureus ATCC 25923 after 18 hrs in presence of NaCl by CLSI based broth microdilution method (reference value: 4 microM); format: functional; conditions: ATCC 25923, 18 h
Staphylococcus aureus [12] = assay: Antibacterial activity against Staphylococcus aureus ATCC 25923 after 18 hrs in presence of KCl by CLSI based broth microdilution method (reference value: 4 microM); format: functional; conditions: ATCC 25923, 18 h
Staphylococcus aureus [13] = assay: Antibacterial activity against Staphylococcus aureus ATCC 25923 after 18 hrs in presence of MgCl2 by CLSI based broth microdilution method (reference value: 4 microM); format: functional; conditions: ATCC 25923, 18 h
Staphylococcus aureus [14] = assay: Antibacterial activity against Staphylococcus aureus ATCC 25923 after 18 hrs in presence of FeCl3 by CLSI based broth microdilution method (reference value: 4 microM); format: functional; conditions: ATCC 25923, 18 h
[15] = Cytotoxicity against mouse RAW264.7 cells assessed as cell proliferation at 32 uM after 1 hr by MTT assay relative to control; format: cell-based; conditions: read-out: Activity
Staphylococcus aureus [16] = assay: Antibacterial activity against Staphylococcus aureus ATCC 25923 after 18 hrs in presence of NaCl by CLSI based broth microdilution method (reference value: 64 microM); format: functional; conditions: ATCC 25923, 18 h
Staphylococcus aureus [17] = assay: Antibacterial activity against Staphylococcus aureus ATCC 25923 after 18 hrs in presence of KCl by CLSI based broth microdilution method (reference value: 64 microM); format: functional; conditions: ATCC 25923, 18 h
Staphylococcus aureus [18] = assay: Antibacterial activity against Staphylococcus aureus ATCC 25923 after 18 hrs in presence of FeCl3 by CLSI based broth microdilution method (reference value: 64 microM); format: functional; conditions: ATCC 25923, 18 h
Escherichia coli [19] = assay: Antimicrobial activity against Escherichia coli ATCC 25922 at 1 mM preincubated for 6 hrs in presence of 20 ug/ml chymotrypsin and measured after 18 hrs by microplate reader analysis; format: functional, organism-based
Escherichia coli [20] = assay: Antibacterial activity against Escherichia coli ATCC 25922 after 18 hrs in presence of NaCl by CLSI based broth microdilution method (reference value: 64 microM); format: functional; conditions: ATCC 25922, 18 h
Escherichia coli [21] = assay: Antibacterial activity against Escherichia coli ATCC 25922 after 18 hrs in presence of KCl by CLSI based broth microdilution method (reference value: 64 microM); format: functional; conditions: ATCC 25922, 18 h
Escherichia coli [22] = assay: Antibacterial activity against Escherichia coli ATCC 25922 after 18 hrs in presence of MgCl2 by CLSI based broth microdilution method (reference value: 64 microM); format: functional; conditions: ATCC 25922, 18 h
Escherichia coli [23] = assay: Antibacterial activity against Escherichia coli ATCC 25922 after 18 hrs in presence of FeCl3 by CLSI based broth microdilution method (reference value: 64 microM); format: functional; conditions: ATCC 25922, 18 h
Staphylococcus aureus [24] = assay: Antibacterial activity against Staphylococcus aureus ATCC 25923 after 18 hrs in presence of NaCl by CLSI based broth microdilution method (reference value: 32 microM); format: functional; conditions: ATCC 25923, 18 h
Staphylococcus aureus [25] = assay: Antibacterial activity against Staphylococcus aureus ATCC 25923 after 18 hrs in presence of MgCl2 by CLSI based broth microdilution method (reference value: 32 microM); format: functional; conditions: ATCC 25923, 18 h
Staphylococcus aureus [26] = assay: Antibacterial activity against Staphylococcus aureus ATCC 25923 after 18 hrs in presence of FeCl3 by CLSI based broth microdilution method (reference value: 32 microM); format: functional; conditions: ATCC 25923, 18 h
Escherichia coli [27] = assay: Antimicrobial activity against Escherichia coli ATCC 25922 at 1 mM preincubated for 6 hrs in presence of 200 ug/ml chymotrypsin and measured after 18 hrs by microplate reader analysis; format: functional, organism-based
Escherichia coli [28] = assay: Antimicrobial activity against Escherichia coli ATCC 25922 preincubated for 1 hr in presence of 10% mouse serum and measured after 18 hrs by CLSI-based broth microdilution assay (reference value: 64 microM); format: functional
Escherichia coli [29] = assay: Antimicrobial activity against Escherichia coli ATCC 25922 preincubated for 6 hrs in presence of 10% mouse serum and measured after 18 hrs by CLSI-based broth microdilution assay (reference value: 64 microM); format: functional
DNA [30] = assay: Binding affinity to Escherichia coli ATCC 25922 genomic DNA at 1 x MIC after 30 mins by agarose gel electrophoresis; format: nucleic-acid assay
DNA [31] = assay: Binding affinity to Escherichia coli ATCC 25922 genomic DNA at 8 x MIC after 30 mins by agarose gel electrophoresis; format: nucleic-acid assay
Staphylococcus aureus [32] = assay: Antibacterial activity against Staphylococcus aureus ATCC 25923 after 18 hrs in presence of KCl by CLSI based broth microdilution method (reference value: 128 microM); format: functional; conditions: ATCC 25923, 18 h
Staphylococcus aureus [33] = assay: Antibacterial activity against Staphylococcus aureus ATCC 25923 after 18 hrs in presence of MgCl2 by CLSI based broth microdilution method (reference value: 128 microM); format: functional; conditions: ATCC 25923, 18 h
Staphylococcus aureus [34] = assay: Antibacterial activity against Staphylococcus aureus ATCC 25923 after 18 hrs in presence of FeCl3 by CLSI based broth microdilution method (reference value: 128 microM); format: functional; conditions: ATCC 25923, 18 h
DNA [35] = assay: Binding affinity to Escherichia coli ATCC 25922 genomic DNA at 0.5 x MIC after 30 mins by agarose gel electrophoresis; format: nucleic-acid assay

In the case of CCCCCCCC(=O)NC(Cc1cn(CCCC[C@H](NC(C)=O)C(=O)NCC(=O)N[C@@H](CC(C)C)C(=O)N[C@@H](CC(C)C)C(=O)N[C@H](CCCCN)C(=O)N[C@@H](CCCNC(=N)N)C(=O)N[C@H](C(=O)N[C@H](CCCCN)C(=O)N[C@H](C(=O)N[C@@H](CC(C)C)C(=O)N[C@@H](CC(C)C)C(N)=O)[C@@H](C)O)[C@@H](C)CC)nn1)C(=O)NCC(=O)N[C@@H](CC(C)C)C(=O)N[C@@H](CC(C)C)C(=O)N[C@H](CCCCN)C(=O)N[C@@H](CCCNC(=N)N)C(=O)N[C@H](C(=O)N[C@H](CCCCN)C(=O)N[C@H](C(=O)N[C@@H](CC(C)C)C(=O)N[C@@H](CC(C)C)C(N)=O)[C@@H](C)O)[C@@H](C)CC (stereo partly specified), the Activity (RAW264.7) was “Toxic”, the MIC (Escherichia coli [1]) was 8 µM and the MIC (Escherichia coli [2]) was 16 µM. It also gave an MIC (Escherichia coli [3]) of 16 µM, an MIC (Escherichia coli [4]) of 4 µM and an MIC (Staphylococcus aureus [5]) of 16 µM. For the same compound, the MIC (Staphylococcus aureus [6]) was 16 µM, the MIC (Staphylococcus aureus [7]) was 8 µM and the MIC (Escherichia coli [8]) was 8 µM. For the same compound, the MIC (Escherichia coli [9]) was 16 µM.
In the case of CCCCCCCCCCCC(=O)NCC(=O)N[C@@H](CC(C)C)C(=O)N[C@@H](CC(C)C)C(=O)N[C@H](CCCCN)C(=O)N[C@@H](CCCNC(=N)N)C(=O)N[C@H](C(=O)N[C@H](CCCCN)C(=O)N[C@H](C(=O)N[C@@H](CC(C)C)C(=O)N[C@@H](CC(C)C)C(N)=O)[C@@H](C)O)[C@@H](C)CC, the viability at 1 h, 8 µM [10] was less than 80%, the MIC (Staphylococcus aureus [11]) was 4 µM and the MIC (Staphylococcus aureus [12]) was 4 µM. It also gave an MIC (Staphylococcus aureus [13]) of 8 µM and an MIC (Staphylococcus aureus [14]) of 8 µM.
CCCCCC(=O)NC(Cc1cn(CCCC[C@H](NC(C)=O)C(=O)NCC(=O)N[C@@H](CC(C)C)C(=O)N[C@@H](CC(C)C)C(=O)N[C@H](CCCCN)C(=O)N[C@@H](CCCNC(=N)N)C(=O)N[C@H](C(=O)N[C@H](CCCCN)C(=O)N[C@H](C(=O)N[C@@H](CC(C)C)C(=O)N[C@@H](CC(C)C)C(N)=O)[C@@H](C)O)[C@@H](C)CC)nn1)C(=O)NCC(=O)N[C@@H](CC(C)C)C(=O)N[C@@H](CC(C)C)C(=O)N[C@H](CCCCN)C(=O)N[C@@H](CCCNC(=N)N)C(=O)N[C@H](C(=O)N[C@H](CCCCN)C(=O)N[C@H](C(=O)N[C@@H](CC(C)C)C(=O)N[C@@H](CC(C)C)C(N)=O)[C@@H](C)O)[C@@H](C)CC (stereo partly specified) showed a viability at 1 h, 32 µM [15] greater than 80%, an MIC (Staphylococcus aureus [16]) of 128 µM and an MIC (Staphylococcus aureus [17]) of 64 µM. For the same compound, the MIC (Staphylococcus aureus [18]) was 32 µM and the Activity (Escherichia coli [19]) was “Active”.
In the case of CCCCCCCC(=O)NCC(=O)N[C@@H](CC(C)C)C(=O)N[C@@H](CC(C)C)C(=O)N[C@H](CCCCN)C(=O)N[C@@H](CCCNC(=N)N)C(=O)N[C@H](C(=O)N[C@H](CCCCN)C(=O)N[C@H](C(=O)N[C@@H](CC(C)C)C(=O)N[C@@H](CC(C)C)C(N)=O)[C@@H](C)O)[C@@H](C)CC, the MIC (Escherichia coli [20]) was 64 µM, the MIC (Escherichia coli [21]) was 32 µM and the MIC (Escherichia coli [22]) was 64 µM. For the same compound, the MIC (Escherichia coli [23]) was 32 µM, the MIC (Staphylococcus aureus [24]) was 128 µM and the MIC (Staphylococcus aureus [25]) was 64 µM. The MIC (Staphylococcus aureus [26]) was 32 µM, the Activity (Escherichia coli [27]) was “Active” and the MIC (Escherichia coli [28]) was 64 µM. It also gave an MIC (Escherichia coli [29]) of 64 µM.
In the case of CCCCCCCCCCCC(=O)NC(Cc1cn(CCCC[C@H](NC(C)=O)C(=O)NCC(=O)N[C@@H](CC(C)C)C(=O)N[C@@H](CC(C)C)C(=O)N[C@H](CCCCN)C(=O)N[C@@H](CCCNC(=N)N)C(=O)N[C@H](C(=O)N[C@H](CCCCN)C(=O)N[C@H](C(=O)N[C@@H](CC(C)C)C(=O)N[C@@H](CC(C)C)C(N)=O)[C@@H](C)O)[C@@H](C)CC)nn1)C(=O)NCC(=O)N[C@@H](CC(C)C)C(=O)N[C@@H](CC(C)C)C(=O)N[C@H](CCCCN)C(=O)N[C@@H](CCCNC(=N)N)C(=O)N[C@H](C(=O)N[C@H](CCCCN)C(=O)N[C@H](C(=O)N[C@@H](CC(C)C)C(=O)N[C@@H](CC(C)C)C(N)=O)[C@@H](C)O)[C@@H](C)CC (stereo partly specified), the Activity (DNA [30]) was “Dose-dependent effect” and the Activity (DNA [31]) was “inactive”.
For CCCC(=O)NC(Cc1cn(CCCC[C@H](NC(C)=O)C(=O)NCC(=O)N[C@@H](CC(C)C)C(=O)N[C@@H](CC(C)C)C(=O)N[C@H](CCCCN)C(=O)N[C@@H](CCCNC(=N)N)C(=O)N[C@H](C(=O)N[C@H](CCCCN)C(=O)N[C@H](C(=O)N[C@@H](CC(C)C)C(=O)N[C@@H](CC(C)C)C(N)=O)[C@@H](C)O)[C@@H](C)CC)nn1)C(=O)NCC(=O)N[C@@H](CC(C)C)C(=O)N[C@@H](CC(C)C)C(=O)N[C@H](CCCCN)C(=O)N[C@@H](CCCNC(=N)N)C(=O)N[C@H](C(=O)N[C@H](CCCCN)C(=O)N[C@H](C(=O)N[C@@H](CC(C)C)C(=O)N[C@@H](CC(C)C)C(N)=O)[C@@H](C)O)[C@@H](C)CC (stereo partly specified), the MIC (Staphylococcus aureus [32]) was 128 µM, the MIC (Staphylococcus aureus [33]) was greater than 128 µM and the MIC (Staphylococcus aureus [34]) was 128 µM. For the same compound, the Activity (DNA [35]) was “inactive”.
